The text below walks through data of patent US20200216439A1, “HETERO-1,5,6,7-TETRAHYDRO-4H-INDOL-4-ONES” (BAYER PHARMA AKTIENGESELLSCHAFT, priority 2015, published 2020).

In the test the target is T1, catalytic domain of human Bub1 (amino acids 704-1085) (Homo sapiens, UniProt O43683).
T1 construct: catalytic domain of human Bub1 (amino acids 704-1085); His6 (N); made in house; host or cells: Hi5 insect cells
The test can be described thus: Bub1 kinase assay (TR-FRET). It is filed as biochemical. The following applies: TR-FRET; ATP 10 μM, peptide substrate 1 μM; 60 min at 22° C.; average or median if tested more than once; read-out: Inhibition of Bub1 kinase IC50. The method, boiled down: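 Human Bub1 catalytic domain (704-1085, His6-tagged, Hi5-expressed, ~200 ng/mL) preincubated with compound 15 min at 22 °C, then reacted 60 min at 22 °C with 10 μM ATP and 1 μM biotinylated peptide substrate, pH 7.5. EDTA stop; TR-FRET 665/620 ratio; IC50 from 4-parameter fit, 11 concentrations in duplicate.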

As usually defined, the IC50 is the concentration that gives 50% inhibition.

T1 sequence (O43683 704-1085): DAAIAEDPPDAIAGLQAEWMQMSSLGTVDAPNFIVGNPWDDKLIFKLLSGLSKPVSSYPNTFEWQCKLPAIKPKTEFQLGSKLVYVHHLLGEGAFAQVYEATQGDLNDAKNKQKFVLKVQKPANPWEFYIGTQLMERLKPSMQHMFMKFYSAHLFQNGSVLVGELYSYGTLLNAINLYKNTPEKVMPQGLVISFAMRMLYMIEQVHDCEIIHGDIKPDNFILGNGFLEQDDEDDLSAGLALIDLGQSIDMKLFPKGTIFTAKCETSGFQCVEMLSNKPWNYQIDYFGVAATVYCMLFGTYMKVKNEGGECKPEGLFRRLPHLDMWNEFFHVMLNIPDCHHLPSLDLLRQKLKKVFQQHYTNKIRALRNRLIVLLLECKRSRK

As for `COC(=O)N1CC(=O)c2c([nH]c(-c3ccnc(C)n3)c2Nc2ccccc2)C1` [Example 27, Methyl 2-(2-methylpyrimidin-4-yl)-4-oxo-3-(phenylamino)-1,4,5,7-tetrahydro-6H-pyrrolo[2,3-c]pyridine-6-carboxylate], the IC50 amounted to 59 nM.
Next, `CN(C)CCOc1cnccc1-c1[nH]c2c(c1Nc1ccccc1)C(=O)CN(S(=O)(=O)N(C)C)C2` [Example 279, 2-3-[2-(Dimethylamino)ethoxy]pyridin-4-yl-N,N-dimethyl-4-oxo-3-(phenylamino)-1,4,5,7-tetrahydro-6H-pyrrolo[2,3-c]pyridine-6-sulfonamide]: 6 nM.
Take `CC(=O)Nc1cc(-c2[nH]c3c(c2Nc2ccc(C)cc2)C(=O)CN(C(=O)OC(C)C)C3)ccn1` [Example 323, Propan-2-yl 2-[2-(acetylamino)pyridin-4-yl]-3-[(4-methylphenyl)amino]-4-oxo-1,4,5,7-tetrahydro-6H-pyrrolo[2,3-c]pyridine-6-carboxylate]: the IC50 was determined as 229 nM.
In the case of `O=C1CN(S(=O)(=O)CC2CCOCC2)Cc2[nH]c(-c3ccncc3)c(Nc3ccccc3)c21` [Example 71, 3-(phenylamino)-2-(pyridin-4-yl)-6-[(tetrahydro-2H-pyran-4-ylmethyl)sulfonyl]-1,5,6,7-tetrahydro-4H-pyrrolo[2,3-c]pyridin-4-one] it was 8 nM; in that of `CC(=O)N1CC(=O)c2c([nH]c(-c3ccnc(NC(=O)c4ccc(F)cc4C)c3)c2Nc2ccccc2)C1` [Example 265, N-4-[6-Acetyl-4-oxo-3-(phenylamino)-4,5,6,7-tetrahydro-1H-pyrrolo[2,3-c]pyridin-2-yl]pyridin-2-yl-4-fluoro-2-methylbenzamide], 6 nM; in that of `CNC(=O)N1CC(=O)c2c([nH]c(-c3ccnc(NC(=O)[C@@H]4C[C@@H]4F)c3)c2Nc2ccccc2)C1` [Example 206, 2-[2-([(1S,2S)-2-Fluorocyclopropyl]carbonylamino)pyridin-4-yl]-N-methyl-4-oxo-3-(phenylamino)-1,4,5,7-tetrahydro-6H-pyrrolo[2,3-c]pyridine-6-carboxamide], 4 nM.
Take `CC(=O)Nc1cc(-c2[nH]c3c(c2Nc2ccccc2)C(=O)CN(C(=O)C(C)C)C3)ccn1` [Example 170, N-[4-(3-Anilino-6-isobutyryl-4-oxo-4,5,6,7-tetrahydro-1H-pyrrolo[2,3-c]pyridin-2-yl)pyridin-2-yl]acetamide]: the IC50 turned out to be 5 nM.
Next, `O=C1CN(C(=O)NC2CC2)Cc2[nH]c(-c3ccncc3)c(Nc3ccccc3)c21` [Example 84, N-Cyclopropyl-4-oxo-3-(phenylamino)-2-(pyridin-4-yl)-1,4,5,7-tetrahydro-6H-pyrrolo[2,3-c]pyridine-6-carboxamide]: 9 nM.
For the compound `CC(=O)Nc1cc(-c2[nH]c3c(c2Nc2ccccc2)C(=O)CN(C(=O)OC(C)(C)C)C3)ccn1` [Example 23, tert-Butyl 2-[2-(acetylamino)pyridin-4-yl]4-oxo-3-(phenylamino)-1,4,5,7-tetrahydro-6H-pyrrolo[2,3-c]pyridine-6-carboxylate], the IC50 was 1660 nM.
Next, `COCCOCCNC(=O)N1CC(=O)c2c([nH]c(-c3ccncc3)c2Nc2ccccc2)C1` [Example 90, N-[2-(2-Methoxyethoxy)ethyl]-4-oxo-3-(phenylamino)-2-(pyridin-4-yl)-1,4,5,7-tetrahydro-6H-pyrrolo[2,3-c]pyridine-6-carboxamide]: 21 nM; `CCNC(=O)N1CC(=O)c2c([nH]c(-c3ccncc3)c2Nc2ccccc2)C1` [Example 10, N-Ethyl-4-oxo-3-(phenylamino)-2-(pyridin-4-yl)-1,4,5,7-tetrahydro-6H-pyrrolo[2,3-c]pyridine-6-carboxamide]: 6 nM.
In the case of `CN1CCN(C(=O)N2CC(=O)c3c([nH]c(-c4ccncc4)c3Nc3ccccc3)C2)CC1` [Example 95, 6-[(4-Methylpiperazin-1-yl)carbonyl]-3-(phenylamino)-2-(pyridin-4-yl)-1,5,6,7-tetrahydro-4H-pyrrolo[2,3-c]pyridin-4-one] it was 9 nM; in that of `CS(=O)(=O)N1CC(=O)c2c([nH]c(-c3ccncc3)c2Nc2ccccc2)C1` [Example 19, 6-(Methylsulfonyl)-3-(phenylamino)-2-(pyridin-4-yl)-1,5,6,7-tetrahydro-4H-pyrrolo[2,3-c]pyridin-4-one], 8 nM.
Next, `CC(=O)Nc1cc(-c2[nH]c3c(c2Nc2ccccc2)C(=O)CN(C(=O)CC(C)(C)C)C3)ccn1` [Example 174, N-{4-[3-Anilino-6-(3,3-dimethylbutanoyl)-4-oxo-4,5,6,7-tetrahydro-1H-pyrrolo[2,3-c]pyridin-2-yl]pyridin-2-yl}acetamide]: 8 nM; `O=C1CNCc2[nH]c(-c3ccncc3OCC(F)F)c(Nc3ccccc3)c21` [Example 224, 3-anilino-2-[3-(2,2-difluoroethoxy)pyridin-4-yl]-1,5,6,7-tetrahydro-4H-pyrrolo[2,3-c]pyridin-4-one]: 222 nM.
`COC(=O)N1CC(=O)c2c([nH]c(-c3ccncc3OC)c2Nc2ccccc2)C1` [Example 104, Methyl 2-(3-methoxypyridin-4-yl)-4-oxo-3-(phenylamino)-1,4,5,7-tetrahydro-6H-pyrrolo[2,3-c]pyridine-6-carboxylate]: the IC50 amounted to 9 nM.
Turning to `COCCOC(=O)N1CC(=O)c2c([nH]c(-c3ccncc3)c2Nc2ccccc2)C1` [Example 80, 2-Methoxyethyl 4-oxo-3-(phenylamino)-2-(pyridin-4-yl)-1,4,5,7-tetrahydro-6H-pyrrolo[2,3-c]pyridine-6-carboxylate], the IC50 came out at 11 nM.
Next, `O=C1CN(S(=O)(=O)C2CC2)Cc2[nH]c(-c3ccncc3)c(Nc3ccccc3)c21` [Example 66, 6-(Cyclopropylsulfonyl)-3-(phenylamino)-2-(pyridin-4-yl)-1,5,6,7-tetrahydro-4H-pyrrolo[2,3-c]pyridin-4-one]: 9 nM; `Cc1ccc(F)cc1C(=O)Nc1cc(-c2[nH]c3c(c2Nc2ccccc2)C(=O)CN(C(=O)OC(C)(C)C)C3)ccn1` [Example 268, tert-Butyl 2-2-[(5-fluoro-2-methylbenzoyl)amino]pyridin-4-yl-4-oxo-3-(phenylamino)-1,4,5,7-tetrahydro-6H-pyrrolo[2,3-c]pyridine-6-carboxylate]: 58 nM.
Next, `O=C1CN(C(=O)NCC(F)F)Cc2[nH]c(-c3ccncc3)c(Nc3ccccc3)c21` [Example 83, N-(2,2-Difluoroethyl)-4-oxo-3-(phenylamino)-2-(pyridin-4-yl)-1,4,5,7-tetrahydro-6H-pyrrolo[2,3-c]pyridine-6-carboxamide]: 12 nM.
`CC(C)(C)OC(=O)N1CC(=O)c2c([nH]c(-c3ccnc(NC(=O)c4cncs4)c3)c2Nc2ccccc2)C1` [Example 122, tert-Butyl 4-oxo-3-(phenylamino)-2-{2-[(1,3-thiazol-5-ylcarbonyl)amino]pyridin-4-yl}-1,4,5,7-tetrahydro-6H-pyrrolo[2,3-c]pyridine-6-carboxylate]: the IC50 turned out to be 6 nM.
Next, `CNC(=O)N1CC(=O)c2c([nH]c(-c3ccnc(NC(C)=O)c3)c2Nc2ccccc2)C1` [Example 168, 2-(2-Acetamidopyridin-4-yl)-3-anilino-N-methyl-4-oxo-1,4,5,7-tetrahydro-6H-pyrrolo[2,3-c]pyridine-6-carboxamide]: 5 nM; `O=C1CNCc2[nH]c(-c3ccnc(NC(=O)[C@H]4C[C@H]4F)c3)c(Nc3ccccc3)c21` [Example 138, (1R,2R)—N-[4-(3-Anilino-4-oxo-4,5,6,7-tetrahydro-1H-pyrrolo[2,3-c]pyridin-2-yl)pyridin-2-yl]-2-fluorocyclopropanecarboxamide]: 224 nM.
In the case of `Cn1cnc(S(=O)(=O)N2CC(=O)c3c([nH]c(-c4ccncc4)c3Nc3ccccc3)C2)c1` [Example 73, 6-[(1-Methyl-1H-imidazol-4-yl)sulfonyl]-3-(phenylamino)-2-(pyridin-4-yl)-1,5,6,7-tetrahydro-4H-pyrrolo[2,3-c]pyridin-4-one] it was 8 nM.
Next, `CCNC(=O)N1CC(=O)c2c([nH]c(-c3ccnc(NC(C)=O)c3)c2Nc2ccccc2)C1` [Example 28]: 13 nM; `O=C(Nc1cc(-c2[nH]c3c(c2Nc2ccccc2)C(=O)COC3)ccn1)c1ccn[nH]1` [Example 145, N-[4-(3-Anilino-4-oxo-1,4,5,7-tetrahydropyrano[3,4-b]pyrrol-2-yl)pyridin-2-yl]-1H-pyrazole-5-carboxamide]: 16 nM; `CN(C)CCOc1cnccc1-c1[nH]c2c(c1Nc1ccccc1)C(=O)CN(C(=O)OC(C)(C)C)C2` [Example 276, tert-Butyl 2-3-[2-(dimethylamino)ethoxy]pyridin-4-yl-4-oxo-3-(phenylamino)-1,4,5,7-tetrahydro-6H-pyrrolo[2,3-c]pyridine-6-carboxylate]: 7 nM.
On to `CC(=O)Nc1cc(-c2[nH]c3c(c2Nc2ccccc2)C(=O)CN(C(=O)SC(C)(C)C)C3)ccn1` [Example 301, S-tert-butyl 2-(2-acetamidopyridin-4-yl)-3-anilino-4-oxo-1,4,5,7-tetrahydro-6H-pyrrolo[2,3-c]pyridine-6-carbothioate], for which the IC50 is 33 nM.
In the case of `CC(C)(C)OC(=O)N1CC(=O)c2c([nH]c(-c3ccncc3F)c2Nc2ccccc2)C1` [Example 11, tert-Butyl 2-(3-fluoropyridin-4-yl)-4-oxo-3-(phenylamino)-1,4,5,7-tetrahydro-6H-pyrrolo[2,3-c]pyridine-6-carboxylate] it was 8 nM; in that of `O=C(Nc1cc(-c2[nH]c3c(c2Nc2ccccc2)C(=O)CNC3)ccn1)c1cnn[nH]1` [Example 275, N-4-[4-Oxo-3-(phenylamino)-4,5,6,7-tetrahydro-1H-pyrrolo[2,3-c]pyridin-2-yl]pyridin-2-yl-1H-1,2,3-triazole-5-carboxamide], 113 nM.
